The record followed here is US11912703B2, “6-azaindole compounds” (BRISTOL-MYERS SQUIBB COMPANY, priority 2017, dated 2024).

Where two headings read alike, the source gives them in different places. A value given as a limit tells only on which side of the number the result lay.

For one assay, the target named is human TLR7 (Homo sapiens (Human), UniProt Q9NYK1). The experiment in a line: TLR7 inhibition reporter assay (HEK-Blue SEAP). The assay is classed as cell-based. The note with it: HEK-Blue cells overexpressing human TLR7, gardiquimod 7.5 μM stimulation. A general note: Reporter assays use an easily measured gene product as a stand-in for the process of interest.
The target in the next assay is human TLR8 (Homo sapiens (Human), UniProt Q9NR97). Kind of assay: TLR8 inhibition reporter assay (HEK-Blue SEAP).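 Note: SEAP driven by IFN-β minimal promoter with five NF-κB and AP-1 sites, compounds tested 0.05 nM to 50 µM, 22 h incubation, inhibition relative to agonist plus DMSO wells.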
The next assay addresses human TLR9 (Homo sapiens (Human), UniProt Q9NR96). Kind of assay: TLR9 inhibition reporter assay (HEK-Blue SEAP).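 Note: SEAP driven by IFN-β minimal promoter carrying five NF-κB and AP-1 sites, 22 h at 37 °C, compounds 0.05 nM–50 µM, inhibition scaled between agonist-plus-DMSO and reference-inhibitor wells.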
The mark [1] stands for this setting: read-out: TLR8 IC50; HEK-Blue cells overexpressing human TLR8, R848 15.9 μM stimulation, SEAP reporter.
[2] abbreviates: read-out: TLR9 IC50; HEK-Blue cells overexpressing human TLR9, ODN2006 5 nM stimulation, SEAP reporter.

Sequence of human TLR9 (Q9NR96 26-1032): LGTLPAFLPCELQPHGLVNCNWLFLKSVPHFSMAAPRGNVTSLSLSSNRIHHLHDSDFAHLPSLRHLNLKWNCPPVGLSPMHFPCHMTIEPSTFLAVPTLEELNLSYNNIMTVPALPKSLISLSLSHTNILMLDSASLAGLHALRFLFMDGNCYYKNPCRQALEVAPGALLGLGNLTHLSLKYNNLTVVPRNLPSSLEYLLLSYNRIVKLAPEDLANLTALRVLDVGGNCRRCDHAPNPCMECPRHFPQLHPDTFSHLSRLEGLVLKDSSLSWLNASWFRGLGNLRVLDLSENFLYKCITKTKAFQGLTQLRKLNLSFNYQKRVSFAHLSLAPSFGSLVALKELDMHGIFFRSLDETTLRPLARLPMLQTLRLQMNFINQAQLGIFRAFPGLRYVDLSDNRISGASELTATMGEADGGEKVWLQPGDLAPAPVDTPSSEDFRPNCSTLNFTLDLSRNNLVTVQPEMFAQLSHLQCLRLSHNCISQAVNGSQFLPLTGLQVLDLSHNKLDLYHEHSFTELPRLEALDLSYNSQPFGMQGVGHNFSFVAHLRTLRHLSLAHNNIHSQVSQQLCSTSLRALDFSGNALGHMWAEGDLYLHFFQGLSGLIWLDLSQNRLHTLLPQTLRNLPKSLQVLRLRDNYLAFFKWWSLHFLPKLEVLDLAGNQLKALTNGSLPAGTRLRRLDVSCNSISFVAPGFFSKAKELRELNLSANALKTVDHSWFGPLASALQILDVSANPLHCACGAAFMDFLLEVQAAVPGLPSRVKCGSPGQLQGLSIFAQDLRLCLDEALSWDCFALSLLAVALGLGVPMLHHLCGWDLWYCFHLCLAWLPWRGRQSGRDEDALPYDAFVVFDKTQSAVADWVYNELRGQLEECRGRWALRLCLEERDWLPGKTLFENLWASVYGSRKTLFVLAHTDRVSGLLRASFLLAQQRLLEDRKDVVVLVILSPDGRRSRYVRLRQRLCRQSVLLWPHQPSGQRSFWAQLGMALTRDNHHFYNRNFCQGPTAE
Sequence of human TLR8 (Q9NR97 27-1041): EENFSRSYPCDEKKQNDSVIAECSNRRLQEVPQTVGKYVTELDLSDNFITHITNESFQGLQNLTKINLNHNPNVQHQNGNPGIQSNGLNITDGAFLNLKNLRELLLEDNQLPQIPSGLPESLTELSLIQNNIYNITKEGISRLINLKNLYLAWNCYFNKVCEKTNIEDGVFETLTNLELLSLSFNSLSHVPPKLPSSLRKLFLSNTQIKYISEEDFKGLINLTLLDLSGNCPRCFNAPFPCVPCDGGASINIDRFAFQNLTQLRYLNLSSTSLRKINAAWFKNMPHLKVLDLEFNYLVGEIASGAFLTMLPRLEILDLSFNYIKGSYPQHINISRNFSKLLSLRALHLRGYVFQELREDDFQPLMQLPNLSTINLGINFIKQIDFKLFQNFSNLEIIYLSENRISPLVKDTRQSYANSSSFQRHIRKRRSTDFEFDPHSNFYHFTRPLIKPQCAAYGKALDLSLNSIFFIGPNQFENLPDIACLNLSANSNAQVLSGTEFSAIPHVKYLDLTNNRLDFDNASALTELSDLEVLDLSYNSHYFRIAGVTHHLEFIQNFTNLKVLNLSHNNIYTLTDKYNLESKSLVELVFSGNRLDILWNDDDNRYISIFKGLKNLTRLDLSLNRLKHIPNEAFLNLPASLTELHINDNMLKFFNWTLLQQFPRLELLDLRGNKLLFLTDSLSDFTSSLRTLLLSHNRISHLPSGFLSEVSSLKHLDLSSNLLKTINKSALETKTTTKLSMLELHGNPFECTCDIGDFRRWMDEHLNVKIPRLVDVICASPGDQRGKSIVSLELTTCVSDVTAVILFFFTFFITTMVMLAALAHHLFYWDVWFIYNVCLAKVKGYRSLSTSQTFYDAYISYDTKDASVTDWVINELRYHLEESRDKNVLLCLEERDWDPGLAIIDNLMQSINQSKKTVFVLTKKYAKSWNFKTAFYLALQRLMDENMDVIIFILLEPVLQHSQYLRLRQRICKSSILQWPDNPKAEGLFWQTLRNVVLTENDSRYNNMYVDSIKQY
Sequence of human TLR7 (Q9NYK1 27-1049): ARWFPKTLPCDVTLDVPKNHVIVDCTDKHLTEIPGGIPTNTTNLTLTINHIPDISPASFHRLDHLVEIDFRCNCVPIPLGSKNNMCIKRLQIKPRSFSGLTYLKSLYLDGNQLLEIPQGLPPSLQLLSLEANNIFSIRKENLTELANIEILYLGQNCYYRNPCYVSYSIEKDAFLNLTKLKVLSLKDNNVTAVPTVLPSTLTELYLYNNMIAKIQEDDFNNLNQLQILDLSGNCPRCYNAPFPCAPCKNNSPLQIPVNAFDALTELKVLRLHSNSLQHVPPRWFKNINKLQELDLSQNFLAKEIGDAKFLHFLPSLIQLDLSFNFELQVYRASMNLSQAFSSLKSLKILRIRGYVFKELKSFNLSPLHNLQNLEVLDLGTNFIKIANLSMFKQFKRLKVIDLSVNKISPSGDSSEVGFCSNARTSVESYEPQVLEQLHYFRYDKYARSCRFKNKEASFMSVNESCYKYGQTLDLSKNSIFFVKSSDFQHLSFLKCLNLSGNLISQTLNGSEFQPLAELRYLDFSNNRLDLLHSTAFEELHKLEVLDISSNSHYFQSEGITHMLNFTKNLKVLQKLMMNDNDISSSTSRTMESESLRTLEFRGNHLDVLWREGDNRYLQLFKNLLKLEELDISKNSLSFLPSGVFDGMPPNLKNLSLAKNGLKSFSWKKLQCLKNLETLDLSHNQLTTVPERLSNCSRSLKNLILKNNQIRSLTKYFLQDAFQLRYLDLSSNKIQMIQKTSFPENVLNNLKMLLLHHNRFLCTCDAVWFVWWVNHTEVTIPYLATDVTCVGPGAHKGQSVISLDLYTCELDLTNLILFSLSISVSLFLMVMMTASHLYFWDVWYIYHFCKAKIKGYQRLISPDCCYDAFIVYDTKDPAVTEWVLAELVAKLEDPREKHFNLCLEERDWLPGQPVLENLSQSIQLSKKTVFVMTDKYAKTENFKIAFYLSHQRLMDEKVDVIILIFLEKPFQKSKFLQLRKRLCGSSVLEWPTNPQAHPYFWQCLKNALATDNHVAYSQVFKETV

The term IC50 denotes the concentration at which inhibition is half-maximal. On to `Cc1cc(-c2[nH]c3cnc(C4CCN(CC5(C)COC5)CC4)c(F)c3c2C(C)C)cc(C)n1` [Example 215], for which the IC50 against human TLR7 came out at 4.2 nM; on human TLR8 (read-out: TLR8 IC50; HEK-Blue cells overexpressing human TLR8; R848 15.9 μM stimulation; SEAP reporter), 3.7 nM; at human TLR9 (read-out: TLR9 IC50; HEK-Blue cells overexpressing human TLR9; ODN2006 5 nM stimulation; SEAP reporter), 2000 nM.
With `Cc1c(-c2[nH]c3cnc(C4CCC(NCC(C)(C)C)CC4)c(F)c3c2C(C)C)cn2ncnc2c1C` (stereo not drawn) [Example 200], the IC50 against human TLR7 worked out at 3 nM; on human TLR8 (setting [1]), 1.1 nM; on human TLR9 (setting [2]), 8780 nM.
As to `Cc1c(-c2[nH]c3cnc(N4CC5(C4)CN(C(C)C)C5)c(F)c3c2C(C)C)cn2ncnc2c1C` [Example 403], the figures for the IC50 at human TLR7, at human TLR8 (setting [1]) and at human TLR9 (setting [2]) were 25 nM, 1.7 nM and 9260 nM, respectively.
As to `COc1cc(-c2[nH]c3cnc(N4CCC(N5CCC5)CC4)c(C)c3c2C(C)C)cn2ncnc12` [Example 87], the IC50 at human TLR7 amounted to 0.33 nM; at human TLR8 (setting [1]), 1 nM; at human TLR9 (setting [2]), 701 nM.
On the same counts, the results for `COc1cc(-c2[nH]c3cnc(N4CCC(NCC(C)(C)O)CC4)c(F)c3c2C(C)C)cn2ncnc12` [Example 156] are 0.79 nM, 0.26 nM and 6430 nM.
In the case of `CCN1CCN(c2ncc3[nH]c(-c4cn5ncnc5c(C)c4C)c(C(C)C)c3c2F)CC1` [Example 433], the IC50 at human TLR7 is 3 nM; at human TLR8 (setting [1]), 0.32 nM; on human TLR9 (setting [2]) it was 6910 nM.
On the same counts, the results for `COc1cc(-c2[nH]c3cnc(N4CCN(CCS(C)(=O)=O)CC4)c(Cl)c3c2C(C)C)cn2ncnc12` [Example 294] are 3 nM, 4.7 nM and 7630 nM.
On the same counts, the results for `COc1cc(-c2[nH]c3cnc(C4CCC(NCC(C)(C)C)C4)cc3c2C(C)C)cn2ncnc12` (stereo not drawn) [Example 144] are 14 nM, 14 nM and 1250 nM.
On the same counts, the results for `CNC(=O)CN1CCC(c2ncc3[nH]c(-c4cc(C)nc(C)c4)c(C(C)C)c3c2F)CC1` [Example 150] are 3.4 nM, 5.3 nM and 6060 nM.
With `Cc1c(N2CCC(NC3COC3)CC2)ncc2[nH]c(-c3cc(C)c4ncnn4c3)c(C(C)C)c12` [Example 140], the IC50 on human TLR7 is 0.53 nM; at human TLR8 (setting [1]), 1.4 nM; on human TLR9 (setting [2]), 3050 nM.
With `COc1cc(-c2[nH]c3cnc(N4CCN(C(=O)CN(C)C)CC4)c(F)c3c2C(C)C)cn2ncnc12` [compound 368], the values for the IC50 on human TLR7, on human TLR8 (setting [1]) and at human TLR9 (setting [2]) were 1.3 nM, 2.3 nM and 5890 nM, respectively.
On the same counts, the results for `Cc1c(-c2[nH]c3cnc(N4CCN(C(=O)CN(C)C)CC4)c(C)c3c2C(C)C)cn2ncnc2c1C` [Example 416, 1-(4-(2-(7,8-dimethyl-[1,2,4]triazolo[1,5-a]pyridin-6-yl)-3-isopropyl-4-methyl-1H-pyrrolo[2,3-c]pyridin-5-yl)piperazin-1-yl)-2-(dimethylamino)ethan-1-one] are 10 nM, 1.7 nM and 1730 nM.
On the same counts, the results for `COc1cc(-c2[nH]c3cnc(N4CC5(CN(C)C5)C4)c(F)c3c2C(C)C)cn2ncnc12` [Example 378] are 6 nM, 3.4 nM and 5110 nM.
Regarding `Cc1c(-c2[nH]c3cnc(N4CC5(CN(CC#N)C5)C4)c(F)c3c2C(C)C)cn2ncnc2c1C` [Example 397], the IC50 at human TLR7 is 48 nM; on human TLR8 (setting [1]) it was 30 nM; at human TLR9 (setting [2]) it was 43200 nM.
For the compound `COc1cc(-c2[nH]c3cnc(C4CCN(C(=O)CN(C)C)CC4)c(C)c3c2C(C)C)cn2ncnc12` [Example 32], the values for the IC50 against human TLR7, at human TLR8 (setting [1]) and on human TLR9 (setting [2]) were 40 nM, 124 nM and 279 nM, respectively.
For the compound `COc1cc(-c2[nH]c3cnc(N4CCC(NC5CCOCC5)CC4)c(F)c3c2C(C)C)cn2ncnc12` [Example 100], the IC50 is 0.8 nM against human TLR7, 0.25 nM on human TLR8 (setting [1]) and 2340 nM at human TLR9 (setting [2]).
On the same counts, the results for `Cc1c(-c2[nH]c3cnc(N4CC5(CN(C)C5)C4)c(F)c3c2C(C)C)cn2ncnc2c1C` [Example 407] are 47 nM, 828 nM and 35400 nM.
On to `Cc1c(-c2[nH]c3cnc(N4CCN(CC(N)=O)CC4)c(F)c3c2C(C)C)cn2ncnc2c1C` [Example 429], for which the values for the IC50 against human TLR7, at human TLR8 (setting [1]) and on human TLR9 (setting [2]) were 9.3 nM, 2.3 nM and above 50000 nM, respectively.
